One may read the IC50 as the point on the concentration scale where inhibition reaches its midpoint.

Sequence of Aurora B/INCENP (Q96GD4 whole entry): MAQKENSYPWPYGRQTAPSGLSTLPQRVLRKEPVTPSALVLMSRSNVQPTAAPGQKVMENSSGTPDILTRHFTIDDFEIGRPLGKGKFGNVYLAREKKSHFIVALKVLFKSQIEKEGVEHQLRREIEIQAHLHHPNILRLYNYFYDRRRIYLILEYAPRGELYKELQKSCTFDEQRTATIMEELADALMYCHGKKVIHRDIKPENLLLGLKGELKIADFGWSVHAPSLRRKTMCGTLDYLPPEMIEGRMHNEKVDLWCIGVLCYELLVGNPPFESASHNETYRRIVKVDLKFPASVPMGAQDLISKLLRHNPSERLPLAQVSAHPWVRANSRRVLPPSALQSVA
Sequence of Aurora B/INCENP (Q9NQS7 whole entry partner): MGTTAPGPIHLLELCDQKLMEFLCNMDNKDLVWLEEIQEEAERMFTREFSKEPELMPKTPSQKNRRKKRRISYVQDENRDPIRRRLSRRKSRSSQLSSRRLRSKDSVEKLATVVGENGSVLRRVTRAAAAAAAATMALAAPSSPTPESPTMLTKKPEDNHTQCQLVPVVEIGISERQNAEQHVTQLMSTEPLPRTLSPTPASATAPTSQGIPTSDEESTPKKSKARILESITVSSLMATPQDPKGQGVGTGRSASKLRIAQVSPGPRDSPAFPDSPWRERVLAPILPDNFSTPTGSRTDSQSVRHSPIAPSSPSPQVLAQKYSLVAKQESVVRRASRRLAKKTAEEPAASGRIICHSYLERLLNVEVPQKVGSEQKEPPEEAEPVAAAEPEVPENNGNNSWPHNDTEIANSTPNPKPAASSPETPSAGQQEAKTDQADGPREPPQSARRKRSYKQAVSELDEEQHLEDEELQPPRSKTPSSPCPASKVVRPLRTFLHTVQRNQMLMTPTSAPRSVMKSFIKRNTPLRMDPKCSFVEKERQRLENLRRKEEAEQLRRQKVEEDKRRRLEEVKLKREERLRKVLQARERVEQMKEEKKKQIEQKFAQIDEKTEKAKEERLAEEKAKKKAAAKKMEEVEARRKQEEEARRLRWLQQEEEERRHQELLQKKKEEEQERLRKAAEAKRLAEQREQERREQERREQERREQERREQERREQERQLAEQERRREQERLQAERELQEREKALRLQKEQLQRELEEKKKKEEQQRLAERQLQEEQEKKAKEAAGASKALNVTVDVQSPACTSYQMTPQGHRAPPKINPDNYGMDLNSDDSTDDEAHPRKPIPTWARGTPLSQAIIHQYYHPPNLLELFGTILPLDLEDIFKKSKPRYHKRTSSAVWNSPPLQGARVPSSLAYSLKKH

The test has as its target Aurora B/INCENP (Homo sapiens, UniProt Q96GD4). The test can be described thus: Determination of inhibition of AIK: Aurora B/INCENP direct fluorescence polarization (IMAP) assay. Format: biochemical. The conditions noted are these: 10 uM ATP, 0.8 nM Aurora B/INCENP; values given as bins; read-out: IC50 of Exemplified Compounds Against AIK B. (Fluorescence polarisation rises when a labelled molecule tumbles more slowly, as on binding a larger partner.)
Consider `CCS(=O)(=O)c1cccc(-c2c(Br)c(C(=O)OC)cc3[nH]c4ncc(C)cc4c23)c1` [Compound 147, 6-Bromo-5-(3-ethanesulfonyl-phenyl)-3-methyl-9H-pyrido[2,3-b]indole-7-carboxylic acid methyl ester], for which the IC50 was over 13 nM.
The figure for `CCS(=O)(=O)c1cccc(-c2cnc(NCC3CCN(C)CC3)c3[nH]c4ncc(C)cc4c23)c1` [Compound 46, [5-(3-Ethanesulfonyl-phenyl)-3-methyl-9H-dipyrido[2,3-b;4′,3′-d]pyrrol-8-yl]-(1-methyl-piperidin-4-ylmethyl)-amine] is 8.6 to 13 nM; for `CCS(=O)(=O)c1cccc(-c2ccc(OCCCN(C)C)c3[nH]c4ncc(Cl)cc4c23)c1` [Compound 220, 3-(3-chloro-5-(3-(ethylsulfonyl)phenyl)-9H-pyrido[2,3-b]indol-8-yloxy)-N,N-dimethylpropan-1-amine] it is 4 to 5.5 nM; for `CCS(=O)(=O)c1cccc(-c2cnc(NCCCN(C)C)c3[nH]c4ncc(C)cc4c23)c1` [Compound 41, N′-[5-(3-Ethanesulfonyl-phenyl)-3-methyl-9H-dipyrido[2,3-b;4′,3′-d]pyrrol-8-yl]-N,N-dimethyl-propane-1,3-diamine] it is 5.6 to 8.5 nM.
On to `COc1ccc(-c2ccc3c(c2)OCO3)c2c1[nH]c1ncc(C)cc12` [Compound 166, 5-(benzo[d][1,3]dioxol-5-yl)-8-methoxy-3-methyl-9H-pyrido[2,3-b]indole], for which the IC50 is over 13 nM.
As for `CCS(=O)(=O)c1cccc(-c2ccc(OCC3CCN(C)CC3)c3[nH]c4ncc(C(F)(F)F)cc4c23)c1` [Compound 202, 5-(3-(ethylsulfonyl)phenyl)-8-((1-methylpiperidin-4-yl)methoxy)-3-(trifluoromethyl)-9H-pyrido[2,3-b]indole], the 50% inhibitory concentration (IC50) fell in the range of 8.6 to 13 nM.
Take `CCS(=O)(=O)c1cccc(-c2ccc(OCCN3CCCC3)c3[nH]c4ncc(Cl)cc4c23)c1` [Compound 223, 3-chloro-5-(3-(ethylsulfonyl)phenyl)-8-(2-(pyrrolidin-1-yl)ethoxy)-9H-pyrido[2,3-b]indole]: the IC50 is 5.6 to 8.5 nM.
Regarding `CCS(=O)(=O)c1cccc(-c2cc(Cl)c(OCCCO)c3[nH]c4ncc(C)cc4c23)c1` [Compound 248, 3-(7-chloro-5-(3-(ethylsulfonyl)phenyl)-3-methyl-9H-pyrido[2,3-b]indol-8-yloxy)propan-1-ol], the concentration for half-maximal inhibition (IC50) was over 13 nM.
`CCS(=O)(=O)c1cccc(-c2cnc(OC[C@H](O)CO)c3[nH]c4ncc(C)cc4c23)c1` [Compound 56]: the IC50 is under 4 nM.
As for “(3-chloro-5-(3-(ethylsulfonyl)phenyl)-9H-pyrido[2,3-b]indol-8-ol [Compound 219]”, the figure is under 4 nM; as for `CCN(CCCOc1ccc(-c2cccc(S(=O)(=O)CC)c2)c2c1[nH]c1ncc(C)cc12)CCOP(=O)(O)O` [Compound 278, 2-(ethyl(3-(5-(3-(ethylsulfonyl)phenyl)-3-methyl-9H-pyrido[2,3-b]indol-8-yloxy)propyl)amino)ethyl dihydrogen phosphate], 4 to 5.5 nM; as for `CCNS(=O)(=O)c1cccc(-c2cc(C(=O)NC3CCN(C)CC3)c(C)c3[nH]c4ncc(C)cc4c23)c1` [Compound 153], over 13 nM.
On to `O=S(=O)(c1cccc(-c2ccc(OCCN3CCC(O)CC3)c3[nH]c4ncc(Cl)cc4c23)c1)C1CC1` [Compound 325, 1-(2-(3-chloro-5-(3-(cyclopropylsulfonyl)phenyl)-9H-pyrido[2,3-b]indol-8-yloxy)ethyl)piperidin-4-ol], for which the IC50 was under 4 nM.
For `CCNC(=O)c1cc(-c2cccc(S(=O)(=O)CC)c2)c2c(c1)[nH]c1ncc(C)cc12` [Compound 146, N-ethyl-5-(3-(ethylsulfonyl)phenyl)-3-methyl-9H-pyrido[2,3-b]indole-7-carboxamide], the IC50 is 5.6 to 8.5 nM.

The record behind these values is US20090312288A1 (TAKEDA PHARMACEUTICAL COMPANY LIMITED, priority 2008, published 2009).
